According to US20240100021A1, “Combination Therapy Schedules to Treat Cancer” (priority 2021, published 2024):
Like-named read-outs stand apart in the source and are kept apart here.

Legend:
[1] = cancer patients, cited from earlier work
[2] = cited from earlier work
OCI-AML3 cells = assay: MTT cell proliferation assay; type: cell-based; conditions: continuous exposure 48 hrs, 0.038 μM Bis, 0.26 μM Ara-C, 0.3 μM ABT199, 14 nM Clad, alone or combined, versus control cells
MOLM14 cells = assay: MTT cell proliferation assay; type: cell-based; conditions: 48 hrs, 0.038 μM Bis, 0.45 uM Ara-C, 6.3 nM ABT199, alone or combined, versus control
[3] = cited from earlier work; remark: listed apart in the source
[4] = system: tumor-cytostatic macrophages; conditions: activation of tumor-cytostatic macrophages (Wang et al. 1984); cited from earlier work
double-stranded DNA = conditions: physiological conditions; cited from earlier work
[5] = patients receiving the drug (Myers et al. 1984); cited from earlier work
[6] = cited from earlier work; remark: listed apart in the source
[7] = animals; cited from earlier work
[8] = cited from earlier work; remark: listed apart in the source
[9] = cited from earlier work; remark: listed apart in the source
[10] = predominantly to albumin; cited from earlier work
[11] = cited from earlier work; remark: listed apart in the source
[12] = isolated human hepatocytes, in vitro; cited from earlier work
[13] = system: PARP1 and caspase 3 cleavage in MOLM14 cells; assay: Western blot of apoptosis markers; type: cell-based; conditions: 48 hrs
[14] = 90 min infusion, 260 mg/m^2, biphasic elimination
[15] = 5 day schedule of 60 min infusions
[16] = three phases of elimination (Alberts et al. 1983)
[17] = trial with doses of 80-250 mg/m^2
[18] = triphasic elimination, first of three single dose studies
[19] = triphasic elimination, last of three single dose studies
[20] = triphasic elimination, second of three single dose studies
[21] = hairy cell leukemia, 0.09 mg/kg/day continuous intravenous infusion over 7 days
[22] = pediatric ALL or AML, 52 mg/m^2, noncompartmental analysis

## Nc1nc(F)nc2c1ncn2[C@@H]1O[C@H](CO)[C@@H](O)[C@@H]1O [2-fluoro-ara-A]
[1]; 5-day treatment schedule, 25 mg 2-fluoro-ara-AMP/m^2 daily over 30 minutes
  factor of increase of plasma trough levels: about 2
[1]
  terminal half-life: approximately 20 hours

## Nc1ccn([C@@H]2O[C@H](CO)[C@@H](O)[C@@H]2O)c(=O)n1 [Ara-C, 1β-arabinofuranosylcytosine]
[2]; after the distributive phase
  plasma radioactivity accounted for by inactive metabolite ara-U: more than 80%
[2]; intravenous, biphasic elimination
  half-life of initial distributive phase: about 10 minutes
[2]; within 24 hours
  share of urinary radioactivity excreted as ara-U: approximately 90%
OCI-AML3 cells
  cell proliferation: 76%
MOLM14 cells
  cell proliferation: 89%

## C(=N\NC1=NCCN1)/c1c2ccccc2c(/C=N/NC2=NCCN2)c2ccccc12.Cl.Cl [Bis, 9,10-anthracenedicarboxaldehyde bis[(4,5-dihydro-1H-imidazol-2-yl)hydrazine] dihydrochloride]
[3]; daily×5, repeat every 4 weeks (Spiegel et al. 1982)
  maximally tolerated dose: 80 mg/m^2
[3]; monthly (every 3-4 week) (Von Hoff et al., 1981b)
  maximally tolerated dose: 260 mg/m^2
[3]; monthly, patients with poor bone marrow reserve (Von Hoff et al., 1981b)
  maximally tolerated dose: 240 mg/m^2
[3]; weekly×3 (Alberts et al. 1982)
  maximally tolerated dose: 200 mg/m^2
[3]; weekly×3, patients with poor bone marrow reserve (Alberts et al. 1982)
  maximally tolerated dose: 150 mg/mg^2
[3]; weekly×3, repeat every 4-5 week (B.-S. Yap et al. 1982)
  maximally tolerated dose: 150 mg/m^2
[4]
  minimal effective in vivo dose: 25 mg/kg
double-stranded DNA
  affinity constants: above 10^6 M^−1
OCI-AML3 cells
  cell proliferation: 80%
MOLM14 cells
  cell proliferation: 79%
[5]
  ejection fraction, radioangiocardiographic monitoring: no decrease in ejection fraction
  electrocardiographic changes: No patients experienced electrocardiographic changes
[6]
  bound to plasma proteins: More than 95%
[7]
  cardiotoxicity: not cardiotoxic
[8]; 72-hr infusion study, dose 56 mg/m^2
  plasma concentration: 12 ± 6 ng/mL
[8]; 72-hr infusion study, dose 260 mg/m^2
  plasma concentration: 55 ± 8 ng/mL
[8]; 72-hr infusion study
  plasma clearance: 1306±179 ml/min/m^2
[8]; 72-hr infusion study, in 24 hr
  urinary excretion of the dose: 4.6%
[8]; 90 min infusion, 260 mg/m^2, after 24 hr
  administered dose excreted unchanged in the urine: 11.3%
[8]; [14]
  initial half-life: 1.08 ± 0.25 h
  terminal half-life: 19.03 ± 3.77 h
[8]; 90 min infusion, 260 mg/m^2
  plasma clearance: 735 ml/min/m^2
  steady state volume of distribution (Vdss): 1845 L/m^2
[8]; [15]
  dose excreted in the urine: 7.1%
  t½ α: 0.9 h
  t½ β: 9.7 h
[8]; human, in vivo
  dose excreted in the urine: Less than 7%
[8]; intravenous dose 260 mg/m^2
  area under the plasma concentration x time curve: 4400 µg·h/mL
[8]; intravenous dose 340 mg/m^2
  area under the plasma concentration x time curve: 5700 µg·h/mL
[8]; one report, interpreted as tissue sequestration
  volume of distribution: 687 L/m^2
[8]; [16]
  beta phase of elimination: approximately 1.5 hours
  initial distributive phase of elimination: 6 min
[8]; trial with doses of 80-250 mg/m^2, after 96 hr
  administered dose found in the urine: 3.4±1.1%
[8]; [17]
  calculated volume of distribution: 42.1 ± 5.9 L/kg
  clearance: 17.425 ± 0.85 mL/min/kg
  initial half-life: 0.6 h
  terminal half-life: 24.7 h
[8]; [18]
  t½ α: 0.0573 h
  t½ β: 1.33 h
  t½ γ: 26.13 h
[8]; [19]
  t½ α: 0.1 h
  t½ β: 1.9 h
  t½ γ: 43.9 h
[8]; [20]
  t½ α: 0.05 h
  t½ β: 1 h
  t½ γ: 8 h

## Nc1nc(Cl)nc2c1ncn2[C@H]1C[C@H](O)[C@@H](CO)O1 [Clad, 2-chloro-6-amino-9-(2-deoxy-β-D-erythropentofuranosyl) purine]
OCI-AML3 cells
  cell proliferation: 87%
[9]; 2 hour infusion 0.12 mg/kg, normal renal function
  mean terminal half-life: 5.4 h
[9]; 2 hour infusion 0.12 mg/kg
  mean clearance: 16.3 ± 7.03 mL/min/kg
  mean steady-state volume of distribution: 4.5 ± 2.8 L/kg
[9]; after intravenous administration, multi-exponential decline
  average half-life: 6.7 ± 2.5 h
[9]; [21]
  mean steady-state serum concentration: 5.7 ng/mL
  systemic clearance: 11.06 mL/min/kg
[9]; hematologic malignancies, 2 hour infusion 0.12 mg/kg
  mean end-of-infusion plasma concentration: 48 ± 19 ng/mL
[9]; human, in vivo
  apparent volume of distribution: approximately 9 L/kg
[9]; one report
  cerebrospinal fluid concentrations relative to plasma: approximately 25%

## Nc1nc(Cl)nc2c1ncn2[C@@H]1O[C@H](CO)[C@@H](O)[C@@H]1F [clofarabine, 2-Chloro-9-(2-deoxy-2-fluoro-beta-D-arabinofuranosyl)-9H-purin-6-amine]
[10]
  bound to plasma proteins: 47%
[11]; 24-hour urine collections, pediatric studies
  dose excreted in the urine unchanged: 49-60%
[11]; [22]
  systemic clearance: 28.8 L/h/m^2
  volume of distribution at steady-state: 172 L/m^2
[11]; pediatric ALL or AML, 52 mg/m^2
  terminal half-life: 5.2 h
[12]
  metabolism: 0.2%

## ABT199
OCI-AML3 cells
  cell proliferation: 79%
MOLM14 cells
  cell proliferation: 77%
[13]
  cleavage of PARP1 and caspase 3: caused cleavage of PARP1
